Measurements as given in paper PMC8868400, “Structure–Activity Relationships and Transcriptomic Analysis of Hypoxia-Inducible Factor Prolyl Hydroxylase Inhibitors” (Antioxidants, 2022).
“And” between values parts separate entries of the source, which are not always exact repeats. Equal entries are not always repeated. “Also recorded” adds a separate entry of the source. Where two headings read alike, the source gives them in different places.

Tests used:
[1] = test system: HIF1 ODD-luc reporter (intracellular HIF PHD), HIF1 ODD-luc/SH-SY5Y cell line; experiment: HIF1 ODD-luc reporter assay; type: cell-based, human; details: for Potency in HIF1 ODD-luc reporter assay (in words, comparative) / IC50: SH-SY5Y, 3 h incubation; for IC50: read-out: IC50 of HIF1 ODD-luc reporter activation; for Interference of free iron with reporter activation: cells loaded with ferrous sulfate 20 min before drug
Procedure: The reporter assay on the HIF1 ODD-luc/SH-SY5Y cell line was performed as described in [10]. Drugs were freshly prepared as 10 mM stock solutions in DMSO, and right before the experiment were diluted to 50×-fold to the final concentration in the well, so each well with 100 μL medium was inoculated with 2 μL of the drug solution. Cells were incubated for 3 h and then lysed and assayed for luciferase activity. To evaluate the effect of iron, the cells were loaded with the corresponding concentrations of ferrous sulfate in the medium for 20 min before the drug’s addition. All experiments were performed in triplicate. The fold activation with respect to the background luminescence in the presence 2 μL DMSO aliquot was plotted against drug concentrations. The results are shown as average ± SD.
The HIF1 ODD-luc reporter assay employs a cell line stably expressing a reporter vector providing the continuous production of an oxygen-dependent domain of HIF1α fused via its C-terminus to N-terminus of firefly luciferase. The steady-state level of the fusion protein depends on the ratio of the rates of its production (pcmv promoter) and degradation upon hydroxylation, binding to VHL and proteasomal degradation. […] Enzyme inhibition results in an immediate response in the form of luciferase fusion accumulation. The performance of the fusion reporter is equivalent to monitoring the actual fate of intracellular HIFs upon enzyme inhibition. […] However, both vadadustat and roxadustat worked in a very high micromolar range (IC50 above 30 μM). […] The use of high concentrations of the αKG mimetic drugs to overcome the competition from the intracellular αKG may result in targeting other αKG-dependent pathways that are unrelated to αKG-dependent dioxygenases, such as kynurenine-oxoglutarate transaminase and αKG dehydrogenase E1. In fact, DMOG is known to inhibit the αKG dehydrogenase complex and oxygen consumption by mitochondria. This plausible break in specificity could be a reason for concerns on the safety of HIF PHD inhibitor drugs in comparison with the use of recombinant EPO [17].

[2] = test system: SH-SY5Y cells; experiment: Oxygen-glucose deprivation (OGD) model, MTT viability; type: cell-based, human; details: 24 h pretreatment
Procedure: (§1) For oxygen-glucose deprivation (OGD) studies, 40,000 SH-SY5Y cells were plated in each well of 96-well plates. After overnight incubation, cells were treated with 1 and 3 μM concentrations of drugs for 24 h prior to OGD, at the onset of OGD, and at the onset of reperfusion. The compounds’ toxicity at the 1, 5, and 8 μM concentrations was assessed at 48 h. Oxygen glucose deprivation was performed as follows. The medium was replaced with DMEM containing no glucose, and then the cells were transferred to a sealed hypoxic chamber with 5% CO2-95% N2 atmosphere for 2 h. After 2 h incubation, the cells were removed from the hypoxic chamber and resupplied with a regular growth media for reperfusion/recovery. After 24 h incubation, cell viability was quantified using an MTT (4,5-dimethylthiazol-2-yl)-2,5-diphenyltetrazolium bromide, Sigma) assay.
The oxygen deprivation model (OGD) was performed using the human neuroblastoma SH-SY5Y cell line. […] The branched oxyquinoline drugs were added either 24 h before the onset of OGD, at the onset of ischemia induced by OGD insult, or with the reperfusion media at the end of OGD, as described in Methods and shown in Figure 6a.

[3] = test system: SH-SY5Y cell line; experiment: Transcriptomic microarray analysis (Gene Chip Human Transcriptome Array 2.0); type: cell-based; details: for Number of downregulated genes / Number of upregulated genes: 0.5 mM DMOG, 30 μM roxadustat, 2 μM oxyquinolines; for Downregulated genes in common with hypoxia / Upregulated genes in common with hypoxia: hypoxia 2 h + 5 h; for Suppression of ATF4 signaling pathway: heatmap
Procedure: Transcriptomic microanalysis was performed as described in [12]. The human neuroblastoma SH-SY5Y cell line was grown on DMEM/F12 (Paneco Ltd., Moscow, Russia) containing 10% FBS (Thermo Fisher Scientific Inc., Waltham, MA, USA), and the cells were plated in 6-well plates (TPP, Russia) at a cell/well density of 500,000 the day before the drug treatment. The drugs—2 μM oxyquinoline(s), 30 μM (roxadustat), and 0.5 mM DMOG—were added to the cells in triplicate, and the cells were incubated for 5 h. The control wells contained 4 μL DMSO. The hypoxic conditions were created by incubation in 1% O2, 5% CO2, and 94% N2 atmosphere for 2 h (the medium was incubated under the same conditions for 16 h before addition to the cells). After 2 h hypoxia, the cells were returned to the original incubation conditions in a CO2 incubator and kept for another 5 h. After incubation, the cells were lysed with the Qiazol reagent (Qiagen N.V., Venlo, The Netherlands). The RNA was isolated using the RNeasy Micro Kit (Qiagen); the qualitative and quantitative analysis of the RNA was performed as described earlier. The RNA integrity number (RIN) values for all the samples were above 9.5. All steps of the sample preparation, hybridization, washing, staining, and microchip scanning were performed as described before. The mRNA expression profile was analyzed using the Gene Chip Human Transcriptome Array 2.0 (Thermo Fisher Scientific Inc., Waltham, MA, USA). The CEL files obtained during microchip scanning were treated with the Transcriptome Analysis Console 2.0 application (Thermo Fisher Scientific-Affymetrix, Santa Clara, CA, USA). Unannotated probe sets were excluded from the analysis. The results obtained were statistically processed using the TAC 4.0 software (Thermo Fisher Scientific). The statistical reliability for the differences in the expression levels between the intact cells and cells treated with the studied compounds was evaluated using the monofactorial analysis of variance (ANOVA) with the Benjamini–Hochberg correction. The significance threshold was 0.05.

[4] = parameters: method as in PMID 20416509; details: estimated; read-out: KD of iron chelation; cited from earlier work
[5] = test system: SH-SY5Y cells; experiment: Compound toxicity at 48 h incubation without OGD; type: cell-based, human; details: 8 μM
Procedure: as §1

[6] = 5 h treatment, 1.5-fold cut-off
[7] = 5 h treatment, 1.5-fold cut-off, listed as 570-0720
[8] = 5 h treatment, 1.5-fold cut-off, listed as FG

Cc1ccnc(NC(c2ccc(C(C)(C)C)cc2)c2cc(Cl)c3cccnc3c2O)c1 (stereo not shown) [5-chloro-neuradapt]
Potency in HIF1 ODD-luc reporter assay (in words, comparative) [1]: almost as active as the original compound

Cc1ccnc(NC(c2ccc(C(C)(C)C)cc2)c2ccc3cccnc3c2O)c1 (stereo not shown) [4896-3212]
IC50 ([1]; Homo sapiens, 3 h): 1 µM
Potency in HIF1 ODD-luc reporter assay (in words, comparative) [1]: submicromolar IC50 values
IC50 [1]: < 1 µM
Interference of free iron with reporter activation [1]: interference of free iron with the reporter activation

Cc1ccnc(NC(c2ccc(C(C)C)cc2)c2ccc3cccnc3c2O)c1 (stereo not shown) [4896-3249]
IC50 ([1]; Homo sapiens, 3 h): 1 µM
Potency in HIF1 ODD-luc reporter assay (in words, comparative) [1]: equally active
viability at 3 µM ([2]; Homo sapiens, SH-SY5Y, 3 μM, insult alone 70%, MTT after 24 h recovery, read-out: Cell viability after OGD): 90%
Downregulated genes in common with 570-0720 [3, 6]: 231 genes
Downregulated genes in common with DMOG [3, 6]: 52 genes
Downregulated genes in common with FG (roxadustat) [3, 6]: 73 genes
Upregulated genes in common with 570-0720 [3, 6]: 524 genes
Upregulated genes in common with DMOG [3, 6]: 188 genes
Upregulated genes in common with FG (roxadustat) [3, 6]: 257 genes
Number of downregulated genes [3, 6]: 386 genes
Number of upregulated genes [3, 6]: 1092 genes
Downregulated genes in common with hypoxia [3, 6]: 31 genes
Upregulated genes in common with hypoxia [3, 6]: 152 genes
Suppression of ATF4 signaling pathway ([3]; 5 h treatment): inhibits several pro-death pathways with ATF4 being one of them; also recorded: enhanced suppression

Cc1ccc2ccc(C(Nc3ccccn3)c3ccc(C(C)C)cc3)c(O)c2n1 (stereo not shown) [5704-0720]
IC50 ([1]; Homo sapiens, 3 h): 2 µM
Potency in HIF1 ODD-luc reporter assay (in words, comparative) [1]: ca. two-fold less potent
Reduction in number of genes overlapped with roxadustat in comparison to isopropyl-neuradapt ([3]; 2 μM, 5 h): ~20%
Downregulated genes in common with DMOG [3, 6]: 38 genes
Downregulated genes in common with FG (roxadustat) [3, 6]: 60 genes
Upregulated genes in common with DMOG [3, 6]: 126 genes
Upregulated genes in common with FG (roxadustat) [3, 6]: 195 genes
Number of downregulated genes [3, 6]: 200–260 genes
Number of upregulated genes [3, 6]: 600–700 genes
Number of downregulated genes [3, 7]: 259 genes
Number of upregulated genes [3, 7]: 600 genes
Downregulated genes in common with hypoxia [3, 6]: 17 genes
Upregulated genes in common with hypoxia [3, 6]: 86 genes
Suppression of ATF4 signaling pathway ([3]; 5 h treatment): no suppression; also recorded: inactive

COC(=O)CNC(=O)C(=O)OC [DMOG, dimethyl oxalylglycine, reference compound]
Potency in HIF1 ODD-luc reporter assay (in words, comparative) [1]: millimolar potency
IC50 [1]: 500 µM
Overlap of downregulated genes for the couple roxadustat and DMOG ([3]; 5 h treatment): 80%
Share of downregulated genes overlapping with hypoxia ([3]; 5 h treatment): ~50%
Share of upregulated genes overlapping with those induced by hypoxia ([3]; 5 h treatment): More than 30%
Downregulated genes in common with FG (roxadustat) [3, 6]: 160 genes
Upregulated genes in common with FG (roxadustat) [3, 6]: 476 genes
Number of downregulated genes [3, 6]: 200–260 genes and 204 genes
Number of upregulated genes [3, 6]: 600–700 genes and 608 genes
Downregulated genes in common with hypoxia [3, 6]: 104 genes
Upregulated genes in common with hypoxia [3, 6]: 279 genes
Suppression of ATF4 signaling pathway ([3]; 5 h treatment): weaker

Oc1cccnc1NC(c1ccc(Cl)cc1)c1ccc2cccnc2c1O (stereo not shown) [adaptaquin, reference compound]
Neuroprotection in OGD ([2]; 1–3 μM): 20–30%

Cc1cc(C2CCCCC2)n(O)c(=O)c1 [ciclopirox]
Kd [4]: 0.05 µM

Cc1ccc2ccc(C(Nc3ccccn3)c3ccc(C(C)C)cc3)c(O)c2n1 (stereo not shown) [compound 7]
Toxicity at prolonged incubation [5]: least toxic

Cc1ccnc(NC(c2ccc(C(C)(C)C)cc2)c2cc(Cl)c3cccnc3c2O)c1 (stereo not shown) [compound 8]
Toxicity at prolonged incubation [5]: least toxic

Cc1nc(C(=O)NCC(=O)O)c(O)c2ccc(Oc3ccccc3)cc12 [roxadustat, reference compound]
IC50 ([1]; Homo sapiens, 3 h): > 30 µM
IC50 ([1]; listed as Roxadustat): ~25 µM
IC50 [1]: 30 µM
Interference of free iron with reporter activation [1]: not observed
Overlap of downregulated genes for the couple roxadustat and DMOG ([3]; 5 h treatment): 80%
Share of downregulated genes overlapping with hypoxia ([3]; 5 h treatment): ~50%
Share of upregulated genes overlapping with those induced by hypoxia ([3]; 5 h treatment): More than 30%
Number of downregulated genes [3, 6]: 200–260 genes
Number of upregulated genes [3, 6]: 600–700 genes
Number of downregulated genes [3, 8]: 209 genes
Number of upregulated genes [3, 8]: 714 genes
Downregulated genes in common with hypoxia [3, 6]: 96 genes
Upregulated genes in common with hypoxia [3, 6]: 261 genes
Suppression of ATF4 signaling pathway ([3]; 5 h treatment): weaker

O=C(O)CNC(=O)c1ncc(-c2cccc(Cl)c2)cc1O [vadadustat, reference compound]
IC50 ([1]; Homo sapiens, 3 h): > 30 µM
